Measurements from the CheMixHub viscosity set.

Assay: xn = mol fraction of the nth substance listed

Nc1ccccc1Cl + Clc1cccc(Cl)c1
viscosity [mPa·s], 101 kPa
Settings	x1 = 0.1088	x1 = 0.2155	x1 = 0.3202	x1 = 0.4228	x1 = 0.5235	x1 = 0.6224	x1 = 0.7194	x1 = 0.8147	x1 = 0.9082
303.15 K	1.108	1.292	1.499	1.732	1.994	2.288	2.615	2.979	3.382
308.15 K	1.043	1.211	1.398	1.607	1.84	2.098	2.382	2.695	3.038
313.15 K	0.9857	1.138	1.308	1.496	1.703	1.931	2.179	2.45	2.743
318.15 K	0.9257	1.066	1.222	1.392	1.579	1.781	2.001	2.237	2.491

CC(O)CC(C)(C)O (stereo not given) + Clc1ccccc1
viscosity [mPa·s], 101 kPa
Settings	x1 = 0.0989	x1 = 0.1989	x1 = 0.2931	x1 = 0.3916	x1 = 0.4927	x1 = 0.5867	x1 = 0.6888	x1 = 0.7938	x1 = 0.8999
308.15 K	0.7755	0.9332	1.164	1.513	2.151	2.823	4.238	6.453	10.85
318.15 K	0.6372	0.7412	0.9438	1.242	1.814	2.278	3.416	5.241	9.228

Nc1ccccc1Cl + Clc1ccccc1Cl
viscosity [mPa·s], 101 kPa
Settings	x1 = 0.1063	x1 = 0.2111	x1 = 0.3145	x1 = 0.4164	x1 = 0.517	x1 = 0.6162	x1 = 0.7141	x1 = 0.8107	x1 = 0.906
303.15 K	1.4	1.584	1.786	2.008	2.251	2.516	2.805	3.119	3.458
308.15 K	1.295	1.461	1.642	1.84	2.054	2.287	2.539	2.81	3.101
313.15 K	1.192	1.342	1.506	1.683	1.875	2.081	2.303	2.54	2.792
318.15 K	1.102	1.24	1.39	1.551	1.724	1.909	2.105	2.313	2.532

Cc1ccccc1N + NCCO
viscosity [mPa·s], 100 kPa
Settings	x1 = 0.0997	x1 = 0.1749	x1 = 0.2629	x1 = 0.3629	x1 = 0.4797	x1 = 0.5707	x1 = 0.6849	x1 = 0.7826	x1 = 0.8935
303.15 K	13.32	12.49	11.51	10.39	9.093	8.076	6.799	5.704	4.459
308.15 K	11.11	10.42	9.62	8.704	7.633	6.796	5.745	4.842	3.815
313.15 K	9.063	8.521	7.884	7.159	6.309	5.646	4.812	4.095	3.278
318.15 K	7.032	6.632	6.161	5.624	4.994	4.503	3.884	3.352	2.744

O=S1(=O)CCCC1 + NCCO
viscosity [mPa·s], 101 kPa
Settings	x2 = 0.1	x2 = 0.3369	x2 = 0.5426	x2 = 0.7423	x2 = 0.8999
303.15 K	14.02	11.47	9.923	9.547	9.78
323.15 K	7.103	6.2	5.815	5.85	6.195

CC(O)CC(C)(C)O (stereo not given) + Nc1ccccc1
viscosity [mPa·s], 101 kPa
Settings	x1 = 0.0963	x1 = 0.1952	x1 = 0.2931	x1 = 0.3958	x1 = 0.4941	x1 = 0.5915	x1 = 0.6855	x1 = 0.8047	x1 = 0.8966
308.15 K	3.187	3.549	4.028	4.615	5.519	6.694	8.195	10.82	14.34
318.15 K	2.348	2.62	3.031	3.543	4.32	5.405	6.826	9.45	12.55

Cc1ccc(O)cc1 + Nc1ccccc1
viscosity [mPa·s], 101.33 kPa
Settings	x1 = 0.2696	x1 = 0.4987	x1 = 0.5914	x1 = 0.7696	x1 = 0.8857
298.15 K	6.95	10.7	12.4	14.4	14.5
323.15 K	2.93	3.97	4.26	4.62	4.71

O=S1(=O)CCCC1 + Nc1ccccc1
viscosity [mPa·s], 101 kPa
Settings	x2 = 0.1	x2 = 0.1955	x2 = 0.3007	x2 = 0.3902	x2 = 0.4997	x2 = 0.6003	x2 = 0.7027	x2 = 0.7982	x2 = 0.8995
303.15 K	9.14	8.22	7.31	6.62	5.86	5.24	4.66	4.17	3.69
308.15 K	8.01	7.2	6.39	5.78	5.1	4.55	4.03	3.59	3.17
313.15 K	7.05	6.33	5.61	5.06	4.46	3.97	3.51	3.12	2.75

CCC(C)O (stereo not given) + O
Settings	viscosity [mPa·s]
293.15 K, 100 kPa, x1 = 0.58	3.807
296 K, 101 kPa, x2 = 0.1	3.008
296 K, 101 kPa, x2 = 0.68	3.67
297 K, 101 kPa, x2 = 0.3	2.923
297 K, 101 kPa, x2 = 0.4	3.074
297 K, 101 kPa, x2 = 0.5	3.242
297 K, 101 kPa, x2 = 0.6	3.416
303 K, 101 kPa, x1 = 0.01	0.9465
303 K, 101 kPa, x2 = 0.1	2.363
303 K, 101 kPa, x2 = 0.3	2.38
303 K, 101 kPa, x2 = 0.4	2.495
303 K, 101 kPa, x2 = 0.5	2.625
303 K, 101 kPa, x2 = 0.6	2.759
303 K, 101 kPa, x2 = 0.68	2.853
303 K, 101 kPa, x2 = 0.98	1.103
304 K, 101 kPa, x2 = 0.97	1.229
305 K, 101 kPa, x2 = 0.2	2.185
313 K, 101 kPa, x1 = 0.01	0.7564
313 K, 101 kPa, x2 = 0.1	1.715
313 K, 101 kPa, x2 = 0.2	1.702
313 K, 101 kPa, x2 = 0.3	1.739
313 K, 101 kPa, x2 = 0.4	1.815
313 K, 101 kPa, x2 = 0.5	1.903
313 K, 101 kPa, x2 = 0.6	1.993
313 K, 101 kPa, x2 = 0.68	2.06
313 K, 101 kPa, x2 = 0.97	0.97
313 K, 101 kPa, x2 = 0.98	0.8638
323 K, 101 kPa, x1 = 0.01	0.622
323 K, 101 kPa, x2 = 0.1	1.28
323 K, 101 kPa, x2 = 0.2	1.28
323 K, 101 kPa, x2 = 0.3	1.312
323 K, 101 kPa, x2 = 0.4	1.364
323 K, 101 kPa, x2 = 0.5	1.427
323 K, 101 kPa, x2 = 0.6	1.492
323 K, 101 kPa, x2 = 0.68	1.541
323 K, 101 kPa, x2 = 0.97	0.773
323 K, 101 kPa, x2 = 0.98	0.6986
323.15 K, 100 kPa, x1 = 0.02	1.324
323.15 K, 100 kPa, x1 = 0.58	1.517

C[N+](C)(C)CCO.O=C1O[C@H]([C@@H](O)CO)C([O-])=C1O + O
viscosity [mPa·s], 100 kPa
Settings	x1 = 0.001102	x1 = 0.001323	x1 = 0.001802	x1 = 0.002629	x1 = 0.00391	x1 = 0.005531
293.15 K	1.048	1.056	1.072	1.099	1.141	1.192
298.15 K	0.933	0.94	0.956	0.98	1.018	1.065
303.15 K	0.838	0.845	0.859	0.882	0.917	0.96
308.15 K	0.758	0.764	0.778	0.799	0.832	0.872
313.15 K	0.69	0.696	0.709	0.729	0.76	0.798

O=S(=O)([O-])NC1CCCCC1.[Rb+] + O
viscosity [mPa·s], 101 kPa
Settings	x1 = 0.00091	x1 = 0.001356	x1 = 0.001833	x1 = 0.002303	x1 = 0.002722	x1 = 0.003185	x1 = 0.003618	x1 = 0.004055	x1 = 0.004552
293.15 K	1.024	1.036	1.048	1.061	1.072	1.084	1.096	1.108	1.123
298.15 K	0.9105	0.9203	0.9315	0.9419	0.9516	0.962	0.9723	0.9828	0.9953
303.15 K	0.8157	0.8243	0.8343	0.8431	0.8516	0.8608	0.8696	0.8789	0.8887
313.15 K	0.6675	0.6747	0.6824	0.6896	0.696	0.7034	0.7104	0.7177	0.7252
323.15 K	0.5585	0.564	0.5704	0.5762	0.5814	0.5874	0.5931	0.5992	0.6057
